# Source: patent US20240366536A1, “MODULATORS OF A POTASSIUM CHANNEL AND OF TRPV1 CHANNEL AND USES THEREOF” (Bsense Bio Therapeutics Ltd., priority 2022, published 2024)
# Where two headings read alike, the source gives them in different places.
# What was measured:
# [1] = Solubility assay (kinetic solubility); type: physicochemical; design: Kinetic Sol.: unit not given here
# [2] = molecular target: T1, hERG (Homo sapiens (Human), UniProt Q12809); experiment: in vitro; settings: hamster, CHO cells that express human hERG
# [3] = tested on: primary neonatal rat DRG neurons; experiment: Rat DRG neuron firing, current-induced and capsaicin-induced (current clamp); type: cell-based
# Description: rDRGs isolation and primary cell culture: Briefly, rat DRGs from all spinal levels were carefully removed and collected in HBSS on ices, connective tissue of the epineurium surrounding the ganglion was removed and cells were dissociated using Collagenase-II and trypsin dissociation solutions. DRGs were dissociated further, passed through glass Pasteur pipettes to obtain single cells. Then dissociation solution was changed to 5% FBS containing DRG neuronal culture medium and plated onto ECL coated 12 mm cover glass.
# Additional rDRGs experiments were performed using Lonza primary neonatal rat (Sprague Dawley neonatal; P2,3) DRG neurons (R-DRG-505, Lonza) plated and cultured according to the manufacturer.
# These cryopreserved DRG cells were prepared from freshly isolated and dissociated spinal cord dorsal root ganglia and comprise a normal distribution of neurons and glia (schwann cells).
# Electrophysiology: Cells were used for electrophysiological recording in the 48 hours following rDRG isolation. Round small neurons (20-40 m in diameter) were selected for electrophysiology recordings, to select for small nociceptive neurons that propagate pain sensation in vivo and that are expressing both Kv7.2/3 and TRPV1 targets. Membrane excitability was monitored using current clamp. Positive current steps of different amplitude were injected (400 ms) to induce spikes trains before and following compound application.
# The inhibitory potency of the newly designed compounds was studied on neuronal excitability in an experimental system of high physiological relevance, primary neonatal rat DRG neurons (Sprague Dawley neonatal; P2,3; R-DRG-505, Lonza). These cryopreserved DRG cells are prepared from freshly isolated and dissociated spinal cord dorsal root ganglia and comprise a normal distribution of neurons and glia (schwann cells).
# The inhibitory potency was tested both on current-induced and Capsaicin-induced neuronal activity.
# [4] = LogD measurement at pH 7.4; type: physicochemical
# [5] = Metabolic stability in human liver microsomes (HLM Clint); type: in vitro ADME
# [6] = molecular target: T2, hTRPV1 (Homo sapiens (Human), UniProt Q8NER1); experiment: High content screen (HCS) Fluo-8 No Wash calcium flux assay, capsaicin activation, CHO cells expressing hTRPV1; type: cell-based; settings: CHO cells expressing hTRPV1, fluorescent HCS; read-out: TRPV1 IC50
# [7] = molecular target: human Kv7.2/3 channels (Homo sapiens (Human), UniProt O43525+O43526); experiment: High content screen (HCS) FLIPR Potassium (thallium flux) assay, CHO/hKv7.2/3 cell line; type: cell-based; settings: head prints IC50; channel activation in CHO/hKv7.2/3, fluorescent HCS; read-out: Kv7.2/7.3 IC50
# Experimental: Cell culture: […] To maintain the stability of human Kv7.2/7.3 expression antibiotic selection was added (Puromycin g/ml). High content screen (HCS) using FLIPR Potassium Assay Kit: FLIPR Potassium Assay Kit ([…] FLIPR Potassium Assay Explorer Kits, Molecular Devices) was used with the CHO/hKv7.2/3 cell line to screen molecules against the hKv7.2/7.3 ion channel target. The assay exploits the permeability of thallium ions (Tl+) through potassium (K^+) channels. In this assay, Tl+ indicator dye is used to produce a bright fluorescent signal upon the binding to Tl+ conducted through the potassium channels. The intensity of the Tl+ signal is proportional to the number of potassium channels in the open state. Therefore, it provides a functional indication of the potassium channel activity. To activate the voltage-gate potassium channels, the cells were stimulated with a mixture of K+ and Tl+ to depolarize the cell membrane. The fluorescence increase in the assay represents the influx of Tl+ into the cell specifically through the potassium channel, providing a functional read-out of hKv7.2/3 activity using a fluorescent plate reader coupled with injectors used to activate the channels. […] Tecan Spark reader plate injectors were primed with Tl+ (1 mM Tl2SO4) or Tl++K+ (1 mM Tl2SO4; 5 mM K2SO4) for channel activation and data correction. […]
# [8] = molecular target: T1, hERG; experiment: cell-based
# [9] = molecular target: T2, hTRPV1; experiment: TRPV1 electrophysiology in CHO cells co-expressing hKv7.2/3 and hTRPV1; type: cell-based; settings: also when co-applied with retigabine
# Description: To exemplify the functional coupling of Kv7.2/3 and TRPV1, stably expressing Kv7.2/3 cells were transfected with human TRPV1 and their response to current ramp to −40 mV (Kv activation) and capsaicin (TRPV1 activation) was examined electrophysiologically.
# [10] = molecular target: T1, hERG; experiment: hERG FLIPR Potassium assay, CHO/hERG cell line; settings: at the concentration given as hERG IC50 bound
# [11] = tested on: human sensory neurons; experiment: Spontaneous activity of human sensory neurons differentiated from hNPCs; type: cell-based; settings: 5 μM, reversible
# Experimental: Cell culture and differentiation: Human PSC-derived neural progenitor cells (Stem Cell Catalog No. 70901 and 70902) were cultured and expanded on Matrigel coated 6-wells plates, using neuronal progenitor medium containing: Neurobasal media supplemented by non-essential amino-acids, 1%; Glutamax, 1%; B27, 2%, FGF2, 20 ng/ml). hNPC were then plated onto PDL and Matrigel coated 12 mm coverglass at a density of about 50,000 cells/well of a 6 well, in DMEM/F12; 10% KSR; 1% P/S and A83-01 (2 M) from days 0-5. From days 0-9 the medium contained also CHIR99021 (6 μM). From Day 3-9 the medium included R04929097 (2 μM) and SU5402 (3 μM). From day 9 and onwards, the media change (Neurobasal Media contains: NT-3; BDNF; NGF; GDNF) was performed every other day by replacing only 50% of the media after CO2 equilibrating. […]
# Electrophysiology: To characterize the neuronal properties with electrophysiology recordings, round small neurons (20-40 μm in diameter) were selected from day 31 and onwards. Cells were monitored for their polarized negative membrane potential and for their ability to evoke consistent spikes train responses to repeated positive current injections as a mark of achieving electrical maturation before testing the effect of the tested compounds on neuronal excitability. Membrane excitability was monitored using current clamp. […]
# [12] = tested on: NGF-treated rat DRG neurons; experiment: Neuropathic model in rat DRGs (NGF pretreatment, capsaicin induced tetanic burst); type: cell-based; settings: NGF 100 ng/ml pretreatment, compound at 100 nM
# Experimental: FIG. 8B presents representative data obtained in assays in which neurons were pretreated with NGF 100 ng/ml for 4-5 days. NGF Non-treated rat DRGs were stimulated by repeated capsaicin application with and without 421-6 at 2 μM (top panel) or 100 nM (Middle panel).
# DRGs treated with NGF show tetanic action potential burst in response to CAP application, mimicking neuropathic like response. See, Background Art FIG. 8A. NGF enhances TRPV1 function using Calcium-dependent fluorescence, F, relative to maximal fluorescence, Fmax, as a function of time from a single HEK293 cell stably transfected with TrkA and transiently transfected with hTRPV1. Pulses of capsaicin (100 nM, applied as shown at top) elicited submaximal increases in [Ca]i. Exposure to NGF (100 ng/ml, see top) enhanced the capsaicin induced calcium increase. Arrows show responses used for calculation of sensitization ratio.
# [13] = tested on: Kv7.3/5, Kv7.4; settings: positive control, Kv7.3/5, Kv7.4 assay; read-out: Known IC50; cited from earlier work
# T1 sequence (Q12809 whole entry): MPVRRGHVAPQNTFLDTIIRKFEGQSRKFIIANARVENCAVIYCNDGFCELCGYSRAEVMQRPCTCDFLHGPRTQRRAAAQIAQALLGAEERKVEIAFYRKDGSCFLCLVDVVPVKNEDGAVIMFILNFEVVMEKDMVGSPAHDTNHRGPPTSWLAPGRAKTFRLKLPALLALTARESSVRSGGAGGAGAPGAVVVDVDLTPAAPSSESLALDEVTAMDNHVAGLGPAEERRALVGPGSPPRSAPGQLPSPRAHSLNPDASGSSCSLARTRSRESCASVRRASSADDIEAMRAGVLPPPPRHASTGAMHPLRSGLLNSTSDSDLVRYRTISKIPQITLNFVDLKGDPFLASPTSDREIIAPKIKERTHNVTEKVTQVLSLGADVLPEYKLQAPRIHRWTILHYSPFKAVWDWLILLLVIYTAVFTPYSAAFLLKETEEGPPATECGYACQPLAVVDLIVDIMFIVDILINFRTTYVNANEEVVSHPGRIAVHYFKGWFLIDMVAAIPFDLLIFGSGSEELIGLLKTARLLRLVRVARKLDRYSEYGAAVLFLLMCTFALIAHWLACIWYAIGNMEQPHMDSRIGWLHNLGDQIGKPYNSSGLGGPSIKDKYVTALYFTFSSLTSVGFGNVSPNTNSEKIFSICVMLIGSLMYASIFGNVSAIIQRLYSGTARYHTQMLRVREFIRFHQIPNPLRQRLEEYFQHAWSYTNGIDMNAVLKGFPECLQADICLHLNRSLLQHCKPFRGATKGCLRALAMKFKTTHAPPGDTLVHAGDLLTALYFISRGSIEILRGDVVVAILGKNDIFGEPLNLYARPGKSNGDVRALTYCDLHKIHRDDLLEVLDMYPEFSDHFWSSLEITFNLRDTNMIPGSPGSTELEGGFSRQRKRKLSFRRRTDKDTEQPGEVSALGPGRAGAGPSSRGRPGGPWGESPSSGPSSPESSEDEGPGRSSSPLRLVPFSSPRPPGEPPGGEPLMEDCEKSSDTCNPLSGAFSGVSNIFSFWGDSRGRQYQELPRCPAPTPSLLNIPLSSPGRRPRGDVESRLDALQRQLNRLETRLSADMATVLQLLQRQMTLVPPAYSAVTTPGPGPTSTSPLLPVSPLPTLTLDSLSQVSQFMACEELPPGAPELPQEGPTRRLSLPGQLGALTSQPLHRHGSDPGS
# T2 sequence (Q8NER1 whole entry): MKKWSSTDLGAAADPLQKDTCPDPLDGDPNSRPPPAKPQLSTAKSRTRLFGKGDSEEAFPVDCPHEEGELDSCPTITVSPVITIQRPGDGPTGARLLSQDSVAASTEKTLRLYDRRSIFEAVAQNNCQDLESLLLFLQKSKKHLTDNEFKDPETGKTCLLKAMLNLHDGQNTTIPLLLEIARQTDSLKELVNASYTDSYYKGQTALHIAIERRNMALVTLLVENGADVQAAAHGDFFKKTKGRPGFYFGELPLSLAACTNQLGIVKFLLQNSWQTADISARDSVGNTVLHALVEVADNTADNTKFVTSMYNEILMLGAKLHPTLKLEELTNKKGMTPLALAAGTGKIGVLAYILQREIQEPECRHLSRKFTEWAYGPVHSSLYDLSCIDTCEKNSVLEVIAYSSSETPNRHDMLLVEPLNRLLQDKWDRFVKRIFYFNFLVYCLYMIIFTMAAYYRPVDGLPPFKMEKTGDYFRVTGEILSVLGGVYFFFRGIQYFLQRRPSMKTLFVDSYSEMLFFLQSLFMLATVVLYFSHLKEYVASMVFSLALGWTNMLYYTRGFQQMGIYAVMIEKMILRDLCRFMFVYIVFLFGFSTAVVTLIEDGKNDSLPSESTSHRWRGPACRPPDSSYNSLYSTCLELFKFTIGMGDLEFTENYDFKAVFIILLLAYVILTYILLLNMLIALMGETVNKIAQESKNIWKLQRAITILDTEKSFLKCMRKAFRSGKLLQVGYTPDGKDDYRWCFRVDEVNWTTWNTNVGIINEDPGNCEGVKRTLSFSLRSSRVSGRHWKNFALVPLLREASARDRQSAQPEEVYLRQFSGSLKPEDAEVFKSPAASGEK
Structure (SMILES),"hERG, percent in parentheses beside the IC50 bound [10]",HLM Clint [5] [µL/min/mg],Kinetic Sol. [1],LogD [4],further results
CC(C)c1cc(Cl)cc(Cl)c1C(O)c1ccc(F)c(CC(=O)NCC2(O)CCC2)c1 (racemic) [Compound 533],,,,,"solubility kinetic at 10 min ([1]; HHBS buffer with 0.2% DMSO, aqueous with cosolvent or surfactant or cyclodextrin, kinetic from dmso stock, read-out: Kinetic Sol.): 41 µM; inhibition at 1.5 h, 50 µM [2]: 0%; capsaicin-evoked rat DRGs spiking ([3]; 100 nM): inhibition is gained; current-evoked rat DRGs spiking ([3]; 100 nM): inhibition decreases; LogD ([4]; lipid phase / aqueous phase, read-out: LogD): 4.36; microsomal CLint [5]: 658 µL/min/mg; IC50 [6]: 21.2 µM; IC50 [7]: 1.5 µM; IC50 [8]: > 50 µM"
"CC(C)(C)c1ccc(/C=C/C(=O)Nc2ccc3c(c2)OCCO3)cc1 [AMG9810, reference compound]",,,,,TRPV1-inhibition potency gain in cells co-expressing hKv7.2/3 and hTRPV1 [9]: failure to gain TRPV1-inhibition potency; reduction of Capsaicin evoked firing ([3]; 50 nM): about 50%
COC[C@@H](CO)NC(=O)Cc1cc(Sc2c(Cl)cc(Cl)cc2C(C)C)ccc1F [Compound 414],(0%),686,,,
COC[C@@H](CO)NC(=O)Cc1cc(Sc2c(Cl)cc(F)cc2C(C)C)ccc1F [Compound 415],(0%),839,26.7,4.25,spontaneous neuronal activity [11]: significantly reduced
CC(C)c1cc(Cl)cc(Cl)c1C(=O)c1ccc(F)c(CC(=O)NCC(C)(C)O)c1 [Compound 417-4],(0%),91.84,66,4.08,
CC(C)c1cc(Cl)cc(Cl)c1C(O)c1ccc(F)c(CC(=O)NCC(C)(C)O)c1 (stereo not drawn) [Compound 417],(0%),89.1,,,
Cc1cn(-c2ccc(F)c(CC(=O)NCC(C)(C)O)c2)c2c(Cl)cc(Cl)cc12 [Compound 421-6],(0%),,,,inhibition of current induced AP activity ([3]; 100 nM): 10.1±3.4%; inhibition of current induced AP responses ([3]; 500 nM): 51.2±8.4%; inhibition of the capsaicin induced AP response ([3]; 500 nM): 86.5±8.4%; inhibition of AP response to Capsaicin activation ([3]; 2 μM): 97.9±2.1%; inhibition of AP response to current activation ([3]; 2 μM): 77.7±5.6%; capsaicin induced tetanic action potential burst [12]: alleviates
CC(C)c1cc(Cl)cc(Cl)c1C(=O)c1ccc(F)c(CC(=O)NCC2(O)CCC2)c1 [Compound 569],,120,27,4.47,
CC(C)c1cc(Cl)cc(Cl)c1C(=O)c1ccc(F)c(CC(=O)NCC2(O)CC2)c1 [Compound 573],,441,24,4.34,
O=C(Cc1cncc(-n2cc(Cl)c3cc(Cl)cc(Cl)c32)c1)NCCO [Compound 649],,27.3,10,4.19,
O=C(Cc1cncc(-n2cc(Cl)c3cc(Cl)cc(Cl)c32)c1)N[C@@H]1COC[C@H]1O [Compound 661],(0%),72,40,3.55,
O=C(Cc1cncc(-n2cc(Cl)c3cc(Cl)cc(Cl)c32)c1)N[C@H]1COC[C@@H]1O [Compound 663],,53.6,26,3.52,
"CCOC(=O)Nc1ccc(NCc2ccc(F)cc2)cc1N [Retigabine, N-(2-amino-4-(4-fluorobenzylamino)-phenyl)carbamic acid ethyl ester]",,,,,IC50 [13]: 1.5 to 5 µM
